{
  "source": "patent US20040043959A1",
  "about": "“Combination therapies for treating methylthioadenosine phosphorylase deficient cells” (priority 2002, published 2004)",
  "target": "T1, Human MTAP (Homo sapiens, UniProt Q13126)",
  "T1 construct": "six-histidine tag (His6) (N); made in house; host or cells: E. coli BL21 DE3",
  "T1 sequence (Q13126 1-283)": "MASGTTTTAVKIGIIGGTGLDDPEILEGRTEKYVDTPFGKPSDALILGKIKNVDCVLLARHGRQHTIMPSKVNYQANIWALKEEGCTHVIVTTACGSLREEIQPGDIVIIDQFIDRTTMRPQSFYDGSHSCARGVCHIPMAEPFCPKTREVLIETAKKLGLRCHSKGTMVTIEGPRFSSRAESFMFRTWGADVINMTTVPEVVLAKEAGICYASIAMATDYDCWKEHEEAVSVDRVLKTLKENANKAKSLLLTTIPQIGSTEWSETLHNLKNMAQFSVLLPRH",
  "experiment": "MTAP substrate assay, coupled spectrophotometric (adenine, xanthine oxidase)",
  "assay_type": "biochemical",
  "conditions": "2 nM MTAP; for activity at 50 µM: 10 min, compound 50 uM, relative to MTA at 50 uM, read-out: MT-A—50: initial velocity as a percentage of the initial velocity with MTA as substrate; for MT-A—10: initial velocity as a percentage of the initial velocity with MTA as substrate: compound 10 uM, relative to MTA at 10 uM",
  "procedure": "An enzymatic assay to determine the activity of MTAP against a given substrate was performed. Human MTAP containing an N-terminal six-histidine tag was expressed in E. coli BL21 DE3 cells. The protein was purified to homogeneity by Ni2+ affinity chromatography. Enzymatic activity was measured using a coupled spectrophotometric assay designed to monitor the reaction product adenine (Savarese, T. M., Crabtree, G. W., and Parks, R. E. Jr., (1980) Biochem. Pharmacol. 30, 189-199). Various concentrations of the indicated 5′-deoxymethylthio adenosine (MTA) or substrate were incubated in assay buffer (40 mM potassium phosphate buffer, 1 mM, and DTT 0.8 units/ml xanthine oxidase coupling enzyme) for 5 minutes at 37° C. The reaction was initiated by the addition of MTAP. The exact concentration of enzyme used varied for each substrate tested and ranged from 2 nM to 500 nM. Activity as a function of enzyme concentration was determined for each substrate tested to ensure that the appropriate enzyme concentration was used. Activity was detected by continuous monitoring of absorbance at 305 nm for 10 minutes (ΔE=15,500 M^−1).\nLibrary compounds (10 and 50 uM) were tested using the assay described above with 2 nM MTAP enzyme. The resultant initial velocities are reported as a percentage of the initial velocity observed when MTA is the substrate. MTA controls, 10 and 50 uM concentrations, were run on each plate alongside the library compounds.",
  "data": [
    {"smiles": "CCc1ccccc1SC[C@H]1O[C@@H](n2cnc3c(N)ncnc32)[C@H](O)[C@@H]1O", "note": "[2(G)(26), (2R, 3R, 4S, 5S)-2-(6-amino-9H-purin-9-yl)-5-{[(2-ethylphenyl)-thio]methyl}tetrahydro-furan-3,4-diol]", "values": [
      {"measurement": "activity at 50 µM", "value": 7, "unit": "%"},
      {"measurement": "MT-A—10: initial velocity as a percentage of the initial velocity with MTA as substrate", "value": 6, "unit": "%"}
    ]},
    {"smiles": "Nc1ncnc2c1ncn2[C@@H]1O[C@H](CSc2ccccc2O)[C@@H](O)[C@H]1O", "note": "[2(G)(27), (2R, 3R, 4S, 5S)-2-(6-amino-9H-purin-9-yl)-5-{[(2-hydroxyphenyl)-thio]methyl}tetrahydro-furan-3,4-diol]", "values": [
      {"measurement": "activity at 50 µM", "value": 23, "unit": "%"},
      {"measurement": "MT-A—10: initial velocity as a percentage of the initial velocity with MTA as substrate", "value": 7, "unit": "%"}
    ]},
    {"smiles": "Cc1ccc(C)c(SC[C@H]2O[C@@H](n3cnc4c(N)ncnc43)[C@H](O)[C@@H]2O)c1", "note": "[2(G)(28)]", "values": [
      {"measurement": "activity at 50 µM", "value": 4, "unit": "%"},
      {"measurement": "MT-A—10: initial velocity as a percentage of the initial velocity with MTA as substrate", "value": 6, "unit": "%"}
    ]},
    {"smiles": "Nc1ncnc2c1ncn2[C@@H]1O[C@H](CSc2cccc(Br)c2)[C@@H](O)[C@H]1O", "note": "[2(G)(29), (2R, 3R, 4S, 5S)-2-(6-amino-9H-purin-9-yl)-5-{[(3-bromophenyl)-thio]methyl}tetrahydro-furan-3,4-diol]", "values": [
      {"measurement": "activity at 50 µM", "value": 19, "unit": "%"},
      {"measurement": "MT-A—10: initial velocity as a percentage of the initial velocity with MTA as substrate", "value": 21, "unit": "%"}
    ]},
    {"smiles": "C#CCSc1nnc(SC[C@H]2O[C@@H](n3cnc4c(N)ncnc43)[C@H](O)[C@@H]2O)s1", "note": "[2(G)(30), (2R, 3R, 4S, 5S)-2-(6-amino-9H-purin-9-yl)-5-({[5-(prop-2-yn-1-ylthio)-1,3,4-thiodiazol-2-yl]thio}methyl)tetra-hydrofuran-3,4-diol]", "values": [
      {"measurement": "activity at 50 µM", "value": 12, "unit": "%"},
      {"measurement": "MT-A—10: initial velocity as a percentage of the initial velocity with MTA as substrate", "value": 11, "unit": "%"}
    ]},
    {"smiles": "Cn1c(O)nnc1SC[C@H]1O[C@@H](n2cnc3c(N)ncnc32)[C@H](O)[C@@H]1O", "note": "[2(G)(31), (2R, 3R, 4S, 5S)-2-(6-amino-9H-purin-9-yl)-5-{[(5-hydroxy-4-methyl-4H-1,2,4-triazol-3-yl)-thio]methyl}tetrahydro-furan-3,4-diol]", "values": [
      {"measurement": "activity at 50 µM", "value": 50, "unit": "%"},
      {"measurement": "MT-A—10: initial velocity as a percentage of the initial velocity with MTA as substrate", "value": 46, "unit": "%"}
    ]},
    {"smiles": "Cc1cc(C)n2nc(SC[C@H]3O[C@@H](n4cnc5c(N)ncnc54)[C@H](O)[C@@H]3O)nc2n1", "note": "[2(G)(32), (2R, 3R, 4S, 5S)-2-(6-amino-9H-purin-9-yl)-5-{[(5,7-dimethyl[1,2,4]-triazolo[1,5-a]pyrimidin-2-yl)thio]methyl}tetra-hydrofuran-3,4-diol]", "values": [
      {"measurement": "activity at 50 µM", "value": 7, "unit": "%"},
      {"measurement": "MT-A—10: initial velocity as a percentage of the initial velocity with MTA as substrate", "value": 6, "unit": "%"}
    ]},
    {"smiles": "Nc1ncnc2c1ncn2[C@@H]1O[C@H](CSc2nccc(C(F)(F)F)n2)[C@@H](O)[C@H]1O", "note": "[2(G)(33), (2R, 3R, 4S, 5S)-2-(6-amino-9H-purin-9-yl)-5-({[4-(trifluoromethyl)-pyr-imidin-2-yl]thio}methyl)-tetrahydrofuran-3,4-diol]", "values": [
      {"measurement": "activity at 50 µM", "value": 36, "unit": "%"},
      {"measurement": "MT-A—10: initial velocity as a percentage of the initial velocity with MTA as substrate", "value": 28, "unit": "%"}
    ]},
    {"smiles": "Cc1ccc(C(C)(C)C)cc1SC[C@H]1O[C@@H](n2cnc3c(N)ncnc32)[C@H](O)[C@@H]1O", "note": "[2(G)(34), (2R, 3R, 4S, 5S)-2-(6-amino-9H-purin-9-yl)-5-{[(5-tert-butyl-2-methyl-phenyl)thio]methyl}-tetrahydrofuran-3,4-diol]", "values": [
      {"measurement": "activity at 50 µM", "value": 3, "unit": "%"},
      {"measurement": "MT-A—10: initial velocity as a percentage of the initial velocity with MTA as substrate", "value": 2, "unit": "%"}
    ]},
    {"smiles": "CC(C)c1ccc(SC[C@H]2O[C@@H](n3cnc4c(N)ncnc43)[C@H](O)[C@@H]2O)cc1", "note": "[2(G)(35), (2R, 3R, 4S, 5S)-2-(6-amino-9H-purin-9-yl)-5-{[(4-isopropylphenyl)-thio]methyl}tetrahydro-furan-3,4-diol]", "values": [
      {"measurement": "activity at 50 µM", "value": 11, "unit": "%"},
      {"measurement": "MT-A—10: initial velocity as a percentage of the initial velocity with MTA as substrate", "value": 15, "unit": "%"}
    ]},
    {"smiles": "CCOC(=O)c1cnc(SC[C@H]2O[C@@H](n3cnc4c(N)ncnc43)[C@H](O)[C@@H]2O)nc1N", "note": "[2(G)(36)]", "values": [
      {"measurement": "activity at 50 µM", "value": 40, "unit": "%"},
      {"measurement": "MT-A—10: initial velocity as a percentage of the initial velocity with MTA as substrate", "value": 35, "unit": "%"}
    ]},
    {"smiles": "Cc1occc1SC[C@H]1O[C@@H](n2cnc3c(N)ncnc32)[C@H](O)[C@@H]1O", "note": "[2(G)(37), (2R, 3R, 4S, 5S)-2-(6-amino-9H-purin-9-yl)-5-{[(2-methyl-3-furyl)thio]methyl}tetra-hydrofuran-3,4-diol]", "values": [
      {"measurement": "activity at 50 µM", "value": 26, "unit": "%"},
      {"measurement": "MT-A—10: initial velocity as a percentage of the initial velocity with MTA as substrate", "value": 10, "unit": "%"}
    ]},
    {"smiles": "Nc1ncnc2c1ncn2[C@@H]1O[C@H](CSCC(F)(F)F)[C@@H](O)[C@H]1O", "note": "[2(G)(38), (2R, 3R, 4S, 5S)-2-(6-amino-9H-purin-9-yl)-5-{[(2,2,2-trifluoroethyl)-thio]methyl}tetrahydro-furan-3,4-diol]", "values": [
      {"measurement": "activity at 50 µM", "value": 32, "unit": "%"},
      {"measurement": "MT-A—10: initial velocity as a percentage of the initial velocity with MTA as substrate", "value": 30, "unit": "%"}
    ]},
    {"smiles": "CC(C)(C)OC(=O)NCCSC[C@H]1O[C@@H](n2cnc3c(N)ncnc32)[C@H](O)[C@@H]1O", "note": "[2(G)(39), tert-butyl [2-({[(2S, 3S, 4R, 5R)-5-(6-amino-9H-purin-9-yl)-3,4-dihydroxytetrahydro-furan-2-yl]methyl}thio)-ethyl]carbamate]", "values": [
      {"measurement": "activity at 50 µM", "value": 8, "unit": "%"},
      {"measurement": "MT-A—10: initial velocity as a percentage of the initial velocity with MTA as substrate", "value": 7, "unit": "%"}
    ]},
    {"smiles": "Cc1cc(=O)oc2cc(SC[C@H]3O[C@@H](n4cnc5c(N)ncnc54)[C@H](O)[C@@H]3O)ccc12", "note": "[2(G)(40), 7-({[(2S, 3S, 4R, 5R)-5-(6-amino-9H-purin-9-yl)-3,4-dihydroxytetrahydro-furan-2-yl]methyl}thio)-4-methyl-2H-chromen-2-one]", "values": [
      {"measurement": "activity at 50 µM", "value": 10, "unit": "%"},
      {"measurement": "MT-A—10: initial velocity as a percentage of the initial velocity with MTA as substrate", "value": 6, "unit": "%"}
    ]},
    {"smiles": "Nc1ncnc2c1ncn2[C@@H]1O[C@H](CSc2ncc(C(F)(F)F)cc2Cl)[C@@H](O)[C@H]1O", "note": "[2(G)(41), (2R, 3R, 4S, 5S)-2-(6-amino-9H-purin-9-yl)-5-({[3-chloro-5-(trifluoromethyl)pyridin-yl]thio}methyl)tetra-hydrofuran-3,4-diol]", "values": [
      {"measurement": "activity at 50 µM", "value": 7, "unit": "%"},
      {"measurement": "MT-A—10: initial velocity as a percentage of the initial velocity with MTA as substrate", "value": 7, "unit": "%"}
    ]},
    {"smiles": "Nc1ncnc2c1ncn2[C@@H]1O[C@H](CSc2ccc3ccccc3n2)[C@@H](O)[C@H]1O", "note": "[2(G)(42), (2R, 3R, 4S, 5S)-2-(6-amino-9H-purin-9-yl)-5-[(quinolin-2-ylthio)methyl]-tetrahydrofuran-3,4-diol]", "values": [
      {"measurement": "activity at 50 µM", "value": 47, "unit": "%"},
      {"measurement": "MT-A—10: initial velocity as a percentage of the initial velocity with MTA as substrate", "value": 38, "unit": "%"}
    ]},
    {"smiles": "Cc1cc(C)c(C#N)c(SC[C@H]2O[C@@H](n3cnc4c(N)ncnc43)[C@H](O)[C@@H]2O)n1", "note": "[2(G)(43), 2-({[(2S, 3S, 4R, 5R)-5-(6-amino-9H-purin-9-yl)-dihydroxytetrahydro-furan-2-yl]methyl}thio)-4,6-dimethylnicotino-nitrile]", "values": [
      {"measurement": "activity at 50 µM", "value": 7, "unit": "%"},
      {"measurement": "MT-A—10: initial velocity as a percentage of the initial velocity with MTA as substrate", "value": 5, "unit": "%"}
    ]},
    {"smiles": "C=CCSC[C@H]1O[C@@H](n2cnc3c(N)ncnc32)[C@H](O)[C@@H]1O", "note": "[2(G)(44), (2R, 3R, 4S, 5S)-2-(6-amino-9H-purin-9-yl)-5-[(allythio)methyl]tetra-hydrofuran-3,4-diol]", "values": [
      {"measurement": "activity at 50 µM", "value": 82, "unit": "%"},
      {"measurement": "MT-A—10: initial velocity as a percentage of the initial velocity with MTA as substrate", "value": 77, "unit": "%"}
    ]},
    {"smiles": "CC(C)SC[C@H]1O[C@@H](n2cnc3c(N)ncnc32)[C@H](O)[C@@H]1O", "note": "[2(G)(45), (2R, 3R, 4S, 5S)-2-(6-amino-9H-purin-9-yl)-5-[(isopropylthio)methyl]-tetrahydrofuran-3,4-diol]", "values": [
      {"measurement": "activity at 50 µM", "value": 57, "unit": "%"},
      {"measurement": "MT-A—10: initial velocity as a percentage of the initial velocity with MTA as substrate", "value": 53, "unit": "%"}
    ]}
  ]
}
